Reference: patent US20150289512A1, “METHOD FOR PROMOTING PLANT GROWTH” (SUMITOMO CHEMICAL COMPANY, LIMITED, priority 2012, published 2015)

What follows are compounds tested on Nicotiana benthamiana (assay: Test Example 5: growth promotion under low-temperature stress by hydroponics of Nicotiana benthamiana, 1 ppm). Conditions: 1 ppm in medium, low-temperature stress 7 days at 1.5±1.0° C., green leaf area 3 days later, equation (1).
Format: in vivo
How it was run: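 Seeds were grown in half-strength Murashige–Skoog medium (pH 5.8) containing 1 ppm compound for 7 days at 22 °C, then chilled 7 days at 1.5±1.0 °C and recovered 3 days at 22 °C. Green leaf area was imaged. Relative leaf area = 100×(treated − untreated)/(unstressed untreated − stressed untreated).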
`O=C(O)c1nc2c(F)cc(F)cc2s1` [Compound 86] gave a relative leaf area (% of untreated control) at 1 ppm of at least 5%. Compound `COC(=O)c1oc2ccc(C(F)(F)F)cc2c1NC(=O)C(F)(F)F` [Compound 65] has a relative leaf area (% of untreated control) at 1 ppm of at least 5%. For `O=C(Nc1ccccc1)c1cc2cc(C(F)(F)F)ccc2o1` [Compound 53], the relative leaf area (% of untreated control) at 1 ppm was at least 5%. In the case of `COC(=O)c1nc2cc(C(F)(F)F)ccc2o1` [Compound 17, methyl 5-trifluoromethylbenzoxazole-2-carboxylate], the relative leaf area (% of untreated control) at 1 ppm was at least 5%. `O=C(O)c1oc2ccccc2c1C(F)(F)F` [Compound 82] was tested, and the relative leaf area (% of untreated control) at 1 ppm was at least 5%. For `Cc1c(C(=O)O)oc2ccccc12` [Compound 36], the relative leaf area (% of untreated control) at 1 ppm was at least 5%. `NC(=O)c1cc2cc(C(F)(F)F)ccc2o1` [Compound 51] was tested, and the relative leaf area (% of untreated control) at 1 ppm was at least 5%. `COC(=O)c1oc2ccccc2c1C(F)(F)F` [Compound 83] gave a relative leaf area (% of untreated control) at 1 ppm of at least 5%. `COC(=O)c1oc2ccc(C(F)(F)F)cc2c1C(F)(F)F` [Compound 70] gave a relative leaf area (% of untreated control) at 1 ppm of at least 5%. With `NC(=O)c1oc2ccc(C(F)(F)F)cc2c1C(F)(F)F` [Compound 74] the relative leaf area (% of untreated control) at 1 ppm was at least 5%. Compound `O=C(OCc1ccccc1)c1cc2cc(C(F)(F)F)ccc2o1` [Compound 56] has a relative leaf area (% of untreated control) at 1 ppm of at least 5%. `O=C(NCc1ccccc1)c1oc2ccc(C(F)(F)F)cc2c1C(F)(F)F` [Compound 77] showed a relative leaf area (% of untreated control) at 1 ppm of at least 5%. Compound `O=C(Oc1ccccc1)c1cc2cc(C(F)(F)F)ccc2o1` [Compound 55] has a relative leaf area (% of untreated control) at 1 ppm of at least 5%. Work on `CNC(=O)c1cc2cc(C(F)(F)F)ccc2o1` [Compound 52] yielded a relative leaf area (% of untreated control) at 1 ppm of at least 5%. `COC(=O)c1oc2ccc(C(F)(F)F)cc2c1N(C(C)=O)C(C)=O` [Compound 64] showed a relative leaf area (% of untreated control) at 1 ppm of at least 5%. `COC(=O)c1oc2ccc(C(F)(F)F)cc2c1NS(=O)(=O)c1ccccc1` [Compound 68] gave a relative leaf area (% of untreated control) at 1 ppm of at least 5%. With `COC(=O)c1oc2ccccc2c1C` [Compound 37] the relative leaf area (% of untreated control) at 1 ppm was at least 5%. `Cc1c(C(=O)O)oc2ccc(C(F)(F)F)cc12` [Compound 34] was tested, and the relative leaf area (% of untreated control) at 1 ppm was at least 5%. `O=C(O)c1oc2ccc(C(F)(F)F)cc2c1C(F)(F)F` [Compound 69] was tested, and the relative leaf area (% of untreated control) at 1 ppm was at least 5%.

Each compound was assayed on Corn seeds (variety: Pioneer 120 31P41) (assay: Test Example 14: growth promotion under low-temperature stress by soil drench treatment of corn). Conditions: Zea mays, 120 h; soil drench 20 ml, concentration tested 3 ppm; low-temperature stress 5 days at 2.5° C.; health score 0-5, average of 4 individuals; read-out: Relative value of score (%- untreated control plot).
Format: in vivo
How it was run: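 7-day-old corn seedlings soil-drenched with 20 ml compound solution (from 1,000× DMSO stock in water; control 0.1% DMSO), grown 2 days at 27 °C, then 5 days at 2.5 °C, then 4 days recovery at 27 °C. Health scored 1–5 by number of leaves ≥⅔ healthy; mean of 4 plants.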
`COC(=O)c1nc2cc(C(F)(F)F)ccc2o1` [Compound 17, methyl 5-trifluoromethylbenzoxazole-2-carboxylate] gave a change in vivo at 3 ppm of over 5%.

Same assay, conditions: Zea mays, 120 h; soil drench 20 ml, concentration tested 10 ppm; low-temperature stress 5 days at 2.5° C.; health score 0-5, average of 4 individuals; read-out: Relative value of score (%- untreated control plot)
Work on `NC(=O)c1oc2ccccc2c1C(F)(F)F` [Compound 85] yielded a change in vivo at 10 ppm of over 5%. `O=C(O)c1oc2ccccc2c1C(F)(F)F` [Compound 82] gave a change in vivo at 10 ppm of over 5%. `COC(=O)c1cc2ccccc2o1` [Compound 1] gave a change in vivo at 10 ppm of over 5%. `COC(=O)c1cc2c(C(F)(F)F)cccc2o1` [Compound 45] showed a change in vivo at 10 ppm of over 5%. In the case of `COC(=O)c1cc2cc(C(F)(F)F)ccc2o1` [Compound 3, methyl 5-(trifluoromethyl)benzofuran-2-carboxylate], the change in vivo at 10 ppm was over 5%. Compound `Cc1c(C(=O)O)oc2ccc(C(F)(F)F)cc12` [Compound 34] has a change in vivo at 10 ppm of over 5%. Work on `COC(=O)c1oc2ccc(C(F)(F)F)cc2c1O` [Compound 50] yielded a change in vivo at 10 ppm of over 5%.
